Test system: MiaPACA-2 cells
Assay: Cytotoxic effect measured by hexosaminidase activity
Assay type: cell-based
Conditions: Homo sapiens, MIA PaCa-2; gemcitabine alone, 72 h; read-out: EC50 cell viability
Experimental: Briefly, MiaPACA-2 cells were plated onto 96-well cell culture plates (5×10^3 cells/well) in 50 μl of DMEM medium. […] After removing the culture media cells were washed once with PBS. Sixty microliters of substrate solution (p-nitrophenol-N-acetyl-beta-D-glucosamide 7.5 mM, sodium citrate 0.1 M, 0.25% Triton X-100, pH 5.0) was added to each well and plates were incubated at 37° C. for 2 hours; after this incubation time, a bright yellow appears and plates were developed by adding 90 μl of developer solution (Glycine 50 mM, EDTA 5 mM, pH 10.4), and the absorbance at 450 nm was measured by using a multi-well scanning spectrophotometer. Data analysis was done normalizing the results with the negative control (untreated cells) which were considered as 100% of viability.
Curves were adjusted using a sigmoidal dose-response (variable slope) equation, and EC50 values were obtained from the equation: Y=Bottom+(Top−Bottom)/(1+10^((Log EC50−X)*HillSlope)) where X is the logarithm of concentration and Y is the response. Y starts at Bottom and goes to Top with a sigmoid shape.

SMILES: Nc1ccn([C@@H]2O[C@H](CO)[C@@H](O)C2(F)F)c(=O)n1 [gemcitabine]
- EC50: 8.36 nM

— US9657092B2, “S100A4 antibodies and therapeutic uses thereof” (LYKERA BIOMED SA, priority 2010, dated 2017)
